# Reference: patent publication US20240270759A1, “Preparation of SHP2 phosphatase inhibitors and its applications” (Ya Therapeutics Inc, priority 2021, published 2024)
# Biological target: T1, SHP2 full-length protein (Homo sapiens, UniProt Q06124)
# T1 construct: purchased BPS Bioscience #79330
# T1 sequence (Q06124 1-593): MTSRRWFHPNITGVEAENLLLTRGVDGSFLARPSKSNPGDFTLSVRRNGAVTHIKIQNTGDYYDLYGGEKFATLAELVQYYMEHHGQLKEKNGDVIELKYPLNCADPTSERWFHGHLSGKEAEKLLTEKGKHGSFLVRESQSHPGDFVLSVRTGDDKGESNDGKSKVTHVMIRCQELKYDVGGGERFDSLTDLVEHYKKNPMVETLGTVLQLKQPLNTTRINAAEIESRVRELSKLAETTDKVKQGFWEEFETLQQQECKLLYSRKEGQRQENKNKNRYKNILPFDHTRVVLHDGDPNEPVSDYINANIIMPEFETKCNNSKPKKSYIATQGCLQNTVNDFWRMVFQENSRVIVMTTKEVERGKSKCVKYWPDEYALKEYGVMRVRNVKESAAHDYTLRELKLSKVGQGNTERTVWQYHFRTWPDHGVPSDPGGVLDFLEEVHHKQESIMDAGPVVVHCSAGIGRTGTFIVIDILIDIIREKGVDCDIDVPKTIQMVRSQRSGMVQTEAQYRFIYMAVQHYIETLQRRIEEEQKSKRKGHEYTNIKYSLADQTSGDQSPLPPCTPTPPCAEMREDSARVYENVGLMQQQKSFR
# Test: SHP2 allosteric inhibition experiment (Homogeneous Full Length SHP-2 Assay Kit)
# Type: biochemical
# Details: full-length SHP2 0.06 nM with SHP-2 activating peptide; ten-point, 1 μM to 0.05 nM; read-out: IC50 Values of Compounds Inhibiting SHP2
row,Compound,IC50 [nM]
1,"Nc1nccc(-n2c(=O)[nH]c3nc(N4CCC5(CC4)Cc4ccncc4[C@H]5N)cnc3c2=O)c1Cl [Compound 21, (S)-3-(2-amino-3-chloropyridine-4-yl)-7-(7-amino-5,7-dihydrospiro[cyclopenta[c]pyridine-6,4′-piperidine]-1′-yl)pteridine-2,4(1H,3H)-dione]",≤ 10
2,"C[C@@H]1OCC2(CCN(c3ncc(Sc4cccc(NC(=O)c5cnccn5)c4Cl)cn3)CC2)[C@@H]1N [Compound 126, N-(3-((2-((3S,4S)-4-amino-3-methyl-2-oxa-8-azaspiro[4.5]decane-8-yl)pyrimidine-5-yl)mercapto)-2-chlorophenyl)pyrazine-2-carboxamide]",≤ 10
3,"C[C@@H]1OCC2(CCN(c3ncc(Sc4cccc(NC(=O)c5ccccn5)c4Cl)cn3)CC2)[C@@H]1N [Compound 125, N-(3-((2-((3S,4S)-4-amino-3-methyl-2-oxa-8-azaspiro[4.5]decane-8-yl)pyrimidine-5-yl)mercapto)-2-chlorophenyl)pyridine-2-carboxamide]",≤ 10
4,"CCn1ccc(-c2cccc(Sc3cnc(N4CCC5(CC4)CO[C@@H](C)[C@H]5N)nc3)c2Cl)n1 [Compound 112, (3S,4S)-8-(5-((2-chloro-3-(1-ethyl-1H-pyrazole-3-yl)phenyl)mercapto)pyrimidine-2-yl)-3-methyl-2-oxa-8-azaspiro[4.5]decane-4-amine]",10 to 100
5,"C[C@@H]1OCC2(CCN(c3ncc(Sc4cccc(NC(=O)c5c(O)nc6n(c5=O)CCCC6)c4Cl)nn3)CC2)[C@@H]1N [Compound 130, N-(3-((2-((3S,4S)-4-amino-3-methyl-2-oxa-8-azaspiro[4.5]decane-8-yl)-1,2,4-triazine-6-yl)mercapto)-2-chlorophenyl)-2-hydroxy-4-oxo-6,7,8,9-tetrahydro-4H-pyridinyl[1,2-a]pyrimidine-3-carboxamide]",≤ 10
6,"C[C@@H]1OCC2(CCN(c3ncc(Sc4cccc(-c5cnccn5)c4Cl)cn3)CC2)[C@@H]1N [Compound 116, (3S,4S)-8-(5-((2-chloro-3-(pyrazine-2-yl)phenyl)mercapto)pyrimidine-2-yl)-3-methyl-2-oxa-8-azaspiro[4.5]decane-4-amine]",≤ 10
7,"N-(3-((5-((3S,4S)-4-amino-3-methyl-2-oxa-8-azaspiro[4.5]decane-8-yl)-1,2,4-triazine-3-yl)mercapto)-2-chlorobenzene)-2-hydroxy-4-oxa-6,7,8,9-tetrahydro-4H-pyridinyl[1,2-a]pyrimidine-3-carboxamide [Compound 138]",≤ 10
8,"C[C@@H]1OCC2(CCN(c3ncc(Sc4cccc(Nc5ccncn5)c4Cl)cn3)CC2)[C@@H]1N [Compound 122, (3S,4S)-8-(5-((2-chloro-3-(pyrimidine-4-amino)phenyl)mercapto)pyrimidine-2-yl)-3-methyl-2-oxa-8-azaspiro[4.5]decane-4-amine]",≤ 10
9,"C[C@@H]1OCC2(CCN(c3cnc4nc(Sc5cccc(NC(=O)c6ccncn6)c5Cl)ncc4n3)CC2)[C@@H]1N [Compound 81, N-(3-((6-((3S,4S)-4-amino-3-methyl-2-oxa-8-azaspiro[4.5]decane-8-yl)pteridine-2-yl)mercapto)-2-chlorophenyl)pyrimidine-4-carboxamide]",≤ 10
10,C[C@@H]1OCC2(CCN(c3ccc4nc(Sc5cccc(-c6cccnc6)c5Cl)ncc4n3)CC2)[C@@H]1N [Compound 80],≤ 10
11,"Nc1nccc(-n2c(=O)[nH]c3cc(N4CCC5(CC4)COCC5N)ccc3c2=O)c1Cl (stereo in doubt) [Compound 3, (S)-3-(2-amino-3-chloropyridine-4-yl)-7-(4-amino-2-oxa-8-azaspiro[4.5]decane-8-yl)q uinazoline-2,4(1H,3H)-dione]",≤ 10
12,"CC(C)n1ccc(-c2cccc(Sc3ncc4nc(N5CCC6(CC5)CO[C@@H](C)[C@H]6N)cnc4n3)c2Cl)n1 [Compound 69, (3S,4S)-8-(2-((2-chloro-3-(1-isopropyl-1H-pyrazole-3-yl)phenyl)mercapto)pteridine-6-yl)-3-methyl-2-oxa-8-azaspiro[4.5]decane-4-amine]",≤ 10
